For assay [1], the target named is T1, EGFR L858R/T790M (H1975-clone #36, homozygous) (Homo sapiens, UniProt P00533, L858R/T790M).
T1 construct: designed to specifically target WT EGFR but preserve the L858R/T790M copy; host or cells: H1975-clone #36
Nature of the assay: EGFR degradation HTRF assay, H1975-clone #36 cells. In kind it is cell-based. To be noted: H1975 #36, 16h treatment; for Dmax: NCI-H1975, maximum percentage of degradation. As to the method:
H1975-clone #36(L858R/T790M). H1975 cell heterozygously (from ATCC) contains alleles of WT and L858R/T790M EGFR. H1975-clone #36(L858R/T790M) was generated by gene knockout, in which the EGFR targeting sgRNA was designed to specifically target WT EGFR but preserve the L858R/T790M copy. Followed by the gene knockout, the edited H1975 cells were seeded in 96 well plates at the concentration of 1 cell/well, cultured for about 2 weeks to allow single clones formation. The formed clones were screened by DNA sequencing for the desired edition. H1975-clone #36 was confirmed as a homozygous L858R/T790M EGFR clone.
BaF3 WT(wild type), BaF3-LTC(L858R/T790M/C797S) and BaF3-DTC(Del19/T790M/C797S) cells are treated with compounds diluted in 0.2% DMSO cell culture medium and incubate for 16h, 37° C., 5% CO2, H1975-#36, H1975-#28, H1975-#23 and HCC827 cells are treated with compounds diluted in 0.2% DMSO cell culture medium on day 2, incubate for 16h, 37° C., 5% CO2.the final concentriation of compounds in all assay is start with 10 uM, 5-fold dilution, total 8 doses were included.
After 16h treatment, add HTRF lysis buffer to each well; seal the plate and incubate 1 hour at room temperature on a plate shaker; Once the cells are lysed, 16 μL of cell lysate are transferred to a PE 384-well HTRF detection plate; 4 μL of pre-mixed HTRF antibodies are added to each well; Cover the plate with a plate sealer, spin 1000 rpm for 1 min, Incubate overnight at room temperature; Read on BMG PheraStar with HTRF protocol (337 nm-665 nm-620 nm).
The inhibition (degradation) percentage of the compound was calculated by the following equation: Inhibition percentage of Compound=100-100×(Signal-low control)/(High control-low control), wherein signal=each test compound group
High control=Cell group with added DMSO and without compound, indicating microplate readings without EGFR degradation;
Dmax is the maximum percentage of inhibition (degradation).
The IC50 (DC50) value of a compound can be obtained by fitting the following equation
Y=Bottom+(TOP−Bottom)/(1+((IC50/X)^hillslope))
Wherein, X and Y are known values, and IC50, Hillslope, Top and Bottom are the parameters obtained by fitting with software. Y is the inhibition percentage (calculated from the equation), X is the concentration of the compound; IC50 is the concentration of the compound when the 50% inhibition is reached. The smaller the IC50 value is, the stronger the inhibitory ability of the compound is. Vice versa, the higher the IC50 value is, the weaker the inhibitory ability of the compound is; Hillslope represents the slope of the fitted curve, generally around 1*; Bottom represents the minimum value of the curve obtained by data fitting, which is generally 0%±20%; Top represents the maximum value of the curve obtained by data fitting, which is generally 100%±20%. The experimental data were fitted by calculating and analyzing with Dotmatics data analysis software.

For another assay, the target named is T2, EGFR (HCC827 cells) (Homo sapiens, UniProt P00533, DEL746-750).
T2 construct: endogenous in cells; host or cells: HCC827
Nature of the assay: EGFR degradation HTRF assay, HCC827 cells. Type of assay: cell-based. To be noted: HCC827, 16h treatment; for Dmax: maximum percentage of degradation. In outline: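 Cells treated 16 h at 37 °C, 5% CO2 in medium with 0.2% DMSO; top final concentration 10 uM, 5-fold dilution, 8 doses. Lysates read by HTRF (665/620 nm); degradation % versus DMSO high control, DC50 from four-parameter fit, Dmax as maximal degradation.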
In general terms: Time-resolved FRET reads energy transfer from a long-lived donor to a nearby acceptor.

T2 sequence (P00533 with tags, fused parts or gaps DEL746-750): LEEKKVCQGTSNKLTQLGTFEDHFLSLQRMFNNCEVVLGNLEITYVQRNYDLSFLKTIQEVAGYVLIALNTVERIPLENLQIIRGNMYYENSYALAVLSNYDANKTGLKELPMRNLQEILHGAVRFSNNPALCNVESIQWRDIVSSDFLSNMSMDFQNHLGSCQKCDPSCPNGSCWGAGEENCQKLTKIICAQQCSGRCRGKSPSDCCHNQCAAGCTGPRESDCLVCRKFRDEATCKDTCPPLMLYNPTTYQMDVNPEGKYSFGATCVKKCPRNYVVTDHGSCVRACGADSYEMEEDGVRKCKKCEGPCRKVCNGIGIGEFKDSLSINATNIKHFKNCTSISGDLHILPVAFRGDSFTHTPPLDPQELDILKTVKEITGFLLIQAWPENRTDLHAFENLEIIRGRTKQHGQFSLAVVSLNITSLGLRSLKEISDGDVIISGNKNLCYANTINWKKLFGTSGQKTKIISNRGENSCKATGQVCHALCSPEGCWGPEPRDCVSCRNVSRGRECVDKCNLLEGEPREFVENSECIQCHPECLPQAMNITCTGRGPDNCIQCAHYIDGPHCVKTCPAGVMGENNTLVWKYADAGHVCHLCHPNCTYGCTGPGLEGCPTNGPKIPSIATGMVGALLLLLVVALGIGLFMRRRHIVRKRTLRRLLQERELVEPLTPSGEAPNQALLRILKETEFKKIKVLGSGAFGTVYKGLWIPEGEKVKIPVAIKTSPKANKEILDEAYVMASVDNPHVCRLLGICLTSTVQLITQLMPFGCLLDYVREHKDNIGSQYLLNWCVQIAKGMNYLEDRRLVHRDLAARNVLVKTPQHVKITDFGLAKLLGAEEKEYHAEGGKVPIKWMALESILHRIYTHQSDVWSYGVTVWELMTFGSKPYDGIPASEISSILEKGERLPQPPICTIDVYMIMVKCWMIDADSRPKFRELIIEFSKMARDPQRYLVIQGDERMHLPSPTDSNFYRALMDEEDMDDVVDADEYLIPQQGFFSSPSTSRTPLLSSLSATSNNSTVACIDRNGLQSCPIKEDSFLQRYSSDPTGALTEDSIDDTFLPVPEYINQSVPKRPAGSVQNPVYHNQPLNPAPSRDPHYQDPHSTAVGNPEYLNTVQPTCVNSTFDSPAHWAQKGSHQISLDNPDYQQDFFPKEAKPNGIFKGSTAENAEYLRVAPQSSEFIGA
T1 sequence (P00533 25-1210 T790M/L858R): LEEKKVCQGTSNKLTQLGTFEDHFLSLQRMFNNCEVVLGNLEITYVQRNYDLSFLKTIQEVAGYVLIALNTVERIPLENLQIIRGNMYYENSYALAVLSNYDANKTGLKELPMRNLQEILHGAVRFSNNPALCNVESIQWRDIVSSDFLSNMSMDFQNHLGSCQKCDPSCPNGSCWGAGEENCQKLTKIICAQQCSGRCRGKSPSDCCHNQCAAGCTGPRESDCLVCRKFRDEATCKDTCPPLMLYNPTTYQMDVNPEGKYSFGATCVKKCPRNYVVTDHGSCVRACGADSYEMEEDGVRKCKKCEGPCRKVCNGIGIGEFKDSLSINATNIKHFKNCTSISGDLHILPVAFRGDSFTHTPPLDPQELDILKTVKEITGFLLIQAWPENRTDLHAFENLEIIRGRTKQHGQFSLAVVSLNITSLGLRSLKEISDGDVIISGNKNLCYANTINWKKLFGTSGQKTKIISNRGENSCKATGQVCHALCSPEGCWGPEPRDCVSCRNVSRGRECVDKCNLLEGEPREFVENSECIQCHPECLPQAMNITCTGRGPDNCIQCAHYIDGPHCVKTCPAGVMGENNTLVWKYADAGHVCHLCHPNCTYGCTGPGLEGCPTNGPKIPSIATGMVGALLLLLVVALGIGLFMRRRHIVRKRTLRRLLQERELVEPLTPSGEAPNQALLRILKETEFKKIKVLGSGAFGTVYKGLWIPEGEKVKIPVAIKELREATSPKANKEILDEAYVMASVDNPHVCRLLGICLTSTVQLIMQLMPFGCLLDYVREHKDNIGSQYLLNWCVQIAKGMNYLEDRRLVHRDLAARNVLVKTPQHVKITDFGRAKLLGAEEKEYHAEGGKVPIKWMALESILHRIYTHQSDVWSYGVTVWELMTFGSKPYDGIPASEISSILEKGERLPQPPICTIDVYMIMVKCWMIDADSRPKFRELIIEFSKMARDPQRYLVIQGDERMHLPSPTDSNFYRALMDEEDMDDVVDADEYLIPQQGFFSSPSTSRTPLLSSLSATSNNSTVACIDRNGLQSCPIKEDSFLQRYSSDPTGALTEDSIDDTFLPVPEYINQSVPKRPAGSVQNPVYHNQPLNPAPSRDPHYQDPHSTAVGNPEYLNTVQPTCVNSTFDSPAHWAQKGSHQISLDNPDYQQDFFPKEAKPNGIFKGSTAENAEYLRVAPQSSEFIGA

Take `COc1cc(N2CCN(CC3CCN(c4ccc(N5CCC(=O)NC5=O)cc4C)CC3)CC2)c(C)cc1Nc1ncc(Br)c(Nc2ccc3nccnc3c2P(C)(C)=O)n1` [Example 98, 1-(4-(4-((4-(4-((5-bromo-4-((5-(dimethylphosphoryl)quinoxalin-6-yl)amino)pyrimidin-2-yl)amino)-5-methoxy-2-methylphenyl)piperazin-1-yl)methyl)piperidin-1-yl)-3-methylphenyl)dihydropyrimidine-2,4(1H,3H)-dione]: in assay [1], the DC50 (in general, the midpoint of the concentration-degradation curve) was > 10000 nM and the Dmax (in general, the largest share of the target that was removed) turned out to be 8.3%. Further, on EGFR (HCC827 cells), the DC50 was 166 nM and the Dmax came to 62.3%.
Turning to `COc1cc(N2CCN(CC3CCN(c4ccc(N5CCC(=O)NC5=O)c(C)c4)CC3)CC2)c(C)cc1Nc1ncc(Br)c(Nc2ccc3nccnc3c2P(C)(C)=O)n1` [Example 99, 1-(4-(4-((4-(4-((5-bromo-4-((5-(dimethylphosphoryl)quinoxalin-6-yl)amino)pyrimidin-2-yl)amino)-5-methoxy-2-methylphenyl)piperazin-1-yl)methyl)piperidin-1-yl)-2-methylphenyl)dihydropyrimidine-2,4(1H,3H)-dione], in assay [1], the DC50 is > 10000 nM and the maximal degradation (Dmax) was found to be 35.6%. Moreover, at EGFR (HCC827 cells), the 50% degradation concentration (DC50) turned out to be 60.1 nM and the Dmax stood at 78.5%.
For `COc1cc(N2CCN(C3CN(C(=O)c4cnc(C(=O)Nc5ccc(C6CCC(=O)NC6=O)cc5)cn4)C3)CC2)c(C)cc1Nc1ncc(Br)c(Nc2ccc3nccnc3c2P(C)(C)=O)n1` (centres unmarked) [Example 100, 5-(3-(4-(4-((5-bromo-4-((5-(dimethylphosphoryl)quinoxalin-6-yl)amino)pyrimidin-2-yl)amino)-5-methoxy-2-methylphenyl)piperazin-1-yl)azetidine-1-carbonyl)-N-(4-(2,6-dioxopiperidin-3-yl)phenyl)pyrazine-2-carboxamide], in that order: 8.7 nM, 62.6%, 6.34 nM and 76.9%.
As for `COc1cc(N2CCN(CCCC(=O)N[C@H](C(=O)N3C[C@H](O)C[C@H]3C(=O)N[C@@H](C)c3ccc(-c4scnc4C)cc3)C(C)(C)C)CC2)c(C)cc1Nc1ncc(Br)c(Nc2ccc3nccnc3c2P(C)(C)=O)n1` [Example 102, (2S,4R)-1-((S)-2-(4-(4-(4-((5-bromo-4-((5-(dimethylphosphoryl)quinoxalin-6-yl)amino)pyrimidin-2-yl)amino)-5-methoxy-2-methylphenyl)piperazin-1-yl)butanamido)-3,3-dimethylbutanoyl)-4-hydroxy-N—((S)-1-(4-(4-methylthiazol-5-yl)phenyl)ethyl)pyrrolidine-2-carboxamide], in assay [1], the DC50 is 81.7 nM and the maximal degradation (Dmax) worked out at 65.1%. For the same compound, on EGFR (HCC827 cells), the DC50 was 70.1 nM and the Dmax came to 75.9%.
The matching figures for `CCc1cc(Nc2ncc(Br)c(Nc3ccc4nccnc4c3P(C)(C)=O)n2)c(OC)cc1N1CCC(N2CCN(CCOCCC(=O)N[C@H](C(=O)N3C[C@H](O)C[C@H]3C(=O)NCc3ccc(-c4scnc4C)cc3)C(C)(C)C)CC2)CC1` [Example 103, (2S,4R)-1-((S)-2-(3-(2-(4-(1-(4-((5-bromo-4-((5-(dimethylphosphoryl)quinoxalin-6-yl)amino)pyrimidin-2-yl)amino)-2-ethyl-5-methoxyphenyl)piperidin-4-yl)piperazin-1-yl)ethoxy)propanamido)-3,3-dimethylbutanoyl)-4-hydroxy-N-(4-(4-methylthiazol-5-yl)benzyl)pyrrolidine-2-carboxamide]: 43.1 nM, 79.6%, 28.8 nM and 84.2%.
The matching figures for `COc1cc(N2CCC(N3CCN(CCc4ccc(C5CCC(=O)NC5=O)cc4)CC3)CC2)ccc1Nc1ncc(Cl)c(Nc2ccccc2P(C)(C)=O)n1` (centres unmarked) [Example 104, 3-(4-(2-(4-(1-(4-((5-chloro-4-((2-(dimethylphosphoryl)phenyl)amino)pyrimidin-2-yl)amino)-3-methoxyphenyl)piperidin-4-yl)piperazin-1-yl)ethyl)phenyl)piperidine-2,6-dione]: 5.89 nM, 74.7%, 17.7 nM and 83.4%.
For `COc1cc(N2CCN(CC3CCN(c4ccc(C5CCC(=O)NC5=O)cc4)CC3)CC2)ccc1Nc1ncc(Cl)c(Nc2ccccc2P(C)(C)=O)n1` (centres unmarked) [Example 105, 3-(4-(4-((4-(4-((5-chloro-4-((2-(dimethylphosphoryl)phenyl)amino)pyrimidin-2-yl)amino)-3-methoxyphenyl)piperazin-1-yl)methyl)piperidin-1-yl)phenyl)piperidine-2,6-dione], in that order: 12.2 nM, 83.7%, 16 nM and 67.2%.
On to `COc1cc(N2CCC(N3CCN(CCC4CCN(c5ccc(C6CCC(=O)NC6=O)cc5)CC4)CC3)CC2)ccc1Nc1ncc(Cl)c(Nc2ccccc2P(C)(C)=O)n1` (centres unmarked) [Example 106, 3-(4-(4-(2-(4-(1-(4-((5-chloro-4-((2-(dimethylphosphoryl)phenyl)amino)pyrimidin-2-yl)amino)-3-methoxyphenyl)piperidin-4-yl)piperazin-1-yl)ethyl)piperidin-1-yl)phenyl)piperidine-2,6-dione], for which, in assay [1], the DC50 was 8.32 nM and the maximal degradation (Dmax) amounted to 63%. On EGFR (HCC827 cells), this compound yielded a 50% degradation concentration (DC50) of 7.06 nM and a Dmax of 63.2%.
The matching figures for `COc1cc(N2CCN(CC3CCN(c4ccc(N5CCC(=O)NC5=O)cc4)CC3)CC2)ccc1Nc1ncc(Cl)c(Nc2ccccc2P(C)(C)=O)n1` [Example 115, 1-(4-(4-((4-(4-((5-chloro-4-((2-(dimethylphosphoryl)phenyl)amino)pyrimidin-2-yl)amino)-3-methoxyphenyl)piperazin-1-yl)methyl)piperidin-1-yl)phenyl)dihydropyrimidine-2,4(1H,3H)-dione]: 641 nM, 74.7%, 103 nM and 83.4%.
For `COc1cc(N2CCN(C3CN(C(=O)c4cnc(C(=O)Nc5ccc(C6CCC(=O)NC6=O)cc5)cn4)C3)CC2)ccc1Nc1ncc(Cl)c(Nc2ccccc2P(C)(C)=O)n1` (centres unmarked) [Example 116, 5-(3-(4-(4-((5-chloro-4-((2-(dimethylphosphoryl)phenyl)amino)pyrimidin-2-yl)amino)-3-methoxyphenyl)piperazin-1-yl)azetidine-1-carbonyl)-N-(4-(2,6-dioxopiperidin-3-yl)phenyl)pyrazine-2-carboxamide], in that order: 6.63 nM, 62%, 17.9 nM and 75.4%.
The matching figures for `COc1cc(N2CCC(N3CCN(C(=O)C[C@H](NC(=O)[C@@H]4C[C@@H](O)CN4C(=O)[C@@H](c4cc(C)no4)C(C)C)c4ccc(-c5scnc5C)cc4)CC3)CC2)ccc1Nc1ncc(Cl)c(Nc2ccccc2P(C)(C)=O)n1` [Example 117, (2S,4R)—N—((S)-3-(4-(1-(4-((5-chloro-4-((2-(dimethylphosphoryl)phenyl)amino)pyrimidin-2-yl)amino)-3-methoxyphenyl)piperidin-4-yl)piperazin-1-yl)-1-(4-(4-methylthiazol-5-yl)phenyl)-3-oxopropyl)-4-hydroxy-1-((R)-3-methyl-2-(3-methylisoxazol-5-yl)butanoyl)pyrrolidine-2-carboxamide]: 67.4 nM, 86.7%, 17 nM and 76.2%.

Source of the values: US20230265116A1, “DEGRADATION OF (EGFR) BY CONJUGATION OF EGFR INHIBITORS WITH E3 LIGASE LIGAND AND METHODS OF USE” (BEIGENE, LTD., priority 2020, published 2023).
